Where two headings read alike, the source gives them in different places.
Key:
[1] = tested on: CHOLINE KINASE (TB427TMP.18.0017); assay: Multitargeted bead mixture competition; assay type: binding, T. brucei; conditions: for fold change - vehicle control / fold change vs vehicle control: protein TB427TMP.18.0017 CHOLINE KINASE; for fold change vs vehicle control: vehicle control = 1
TS = target: T1, TS (Homo sapiens, UniProt P04818); assay: Multitargeted bead mixture competition, HeLa cell extract; assay type: binding
T1 construct: endogenous in cells; host or cells: HeLa cell extract
T1 sequence (P04818 whole entry): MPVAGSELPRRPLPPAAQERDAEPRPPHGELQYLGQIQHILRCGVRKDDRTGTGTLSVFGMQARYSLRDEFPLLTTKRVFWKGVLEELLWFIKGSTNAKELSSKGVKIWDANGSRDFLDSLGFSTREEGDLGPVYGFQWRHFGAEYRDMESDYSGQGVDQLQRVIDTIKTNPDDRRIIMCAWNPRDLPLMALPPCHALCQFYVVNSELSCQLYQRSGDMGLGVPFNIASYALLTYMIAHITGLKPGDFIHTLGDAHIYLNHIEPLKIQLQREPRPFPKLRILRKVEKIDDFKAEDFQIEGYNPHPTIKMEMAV

[2] = target: variant surface glycoprotein 221 (VSM2.TRYBB) (Trypanosoma brucei brucei, UniProt P26332); assay type: binding, T. brucei; conditions: for fold change - vehicle control / fold change: protein VSM2_TRYBB VARIANT SURFACE GL[…] 1.2; for fold change: vehicle control = 1
[3] = tested on: glutamate 5′-kinase (LmjF.26.2710); assay: Multitargeted bead mixture competition; assay type: binding, Leishmania; conditions: for fold change / fold change vs vehicle control: protein LMJF.26.2710 GLUTAMATE 5-KINASE, PUTATIVE; for fold change: vehicle control = 1
[4] = target: T2, HeLa cell extract proteins (Homo sapiens, UniProt P55010); assay type: binding
T2 construct: endogenous in cells; host or cells: HeLa cell extract
T2 sequence (P55010 whole entry): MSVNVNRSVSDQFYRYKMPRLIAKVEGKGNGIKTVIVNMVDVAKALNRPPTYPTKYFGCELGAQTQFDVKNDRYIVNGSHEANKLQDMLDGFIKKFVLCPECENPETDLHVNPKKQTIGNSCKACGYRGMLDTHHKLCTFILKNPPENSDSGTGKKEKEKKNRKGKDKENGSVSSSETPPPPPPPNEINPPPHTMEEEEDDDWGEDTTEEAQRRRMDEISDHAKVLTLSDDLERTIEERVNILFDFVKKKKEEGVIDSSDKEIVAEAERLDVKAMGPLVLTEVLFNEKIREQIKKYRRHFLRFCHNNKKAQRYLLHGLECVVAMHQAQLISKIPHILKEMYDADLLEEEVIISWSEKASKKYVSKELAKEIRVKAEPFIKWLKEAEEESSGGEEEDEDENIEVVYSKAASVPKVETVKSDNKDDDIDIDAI

[5] = target: T3, HeLa cell extract proteins (Homo sapiens, UniProt P24666); assay type: binding
T3 construct: endogenous in cells; host or cells: HeLa cell extract
T3 sequence (P24666 1-158): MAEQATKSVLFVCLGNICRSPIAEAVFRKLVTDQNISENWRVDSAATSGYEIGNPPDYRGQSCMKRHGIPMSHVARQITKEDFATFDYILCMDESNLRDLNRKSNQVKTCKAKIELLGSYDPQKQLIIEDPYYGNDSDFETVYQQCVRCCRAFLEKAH

[6] = target: T4, HeLa cell extract proteins (Homo sapiens, UniProt Q9NR28); assay type: binding
T4 construct: endogenous in cells; host or cells: HeLa cell extract
T4 sequence (Q9NR28 22-239): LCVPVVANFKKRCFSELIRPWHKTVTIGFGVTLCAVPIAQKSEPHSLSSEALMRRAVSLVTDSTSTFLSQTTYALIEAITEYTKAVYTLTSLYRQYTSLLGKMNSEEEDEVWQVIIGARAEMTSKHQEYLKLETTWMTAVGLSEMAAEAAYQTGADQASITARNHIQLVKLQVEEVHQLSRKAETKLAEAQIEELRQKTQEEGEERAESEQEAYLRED

[7] = target: T5, HeLa cell extract proteins (Homo sapiens, UniProt Q93074); assay type: binding
T5 construct: endogenous in cells; host or cells: HeLa cell extract
T5 sequence (Q93074 whole entry): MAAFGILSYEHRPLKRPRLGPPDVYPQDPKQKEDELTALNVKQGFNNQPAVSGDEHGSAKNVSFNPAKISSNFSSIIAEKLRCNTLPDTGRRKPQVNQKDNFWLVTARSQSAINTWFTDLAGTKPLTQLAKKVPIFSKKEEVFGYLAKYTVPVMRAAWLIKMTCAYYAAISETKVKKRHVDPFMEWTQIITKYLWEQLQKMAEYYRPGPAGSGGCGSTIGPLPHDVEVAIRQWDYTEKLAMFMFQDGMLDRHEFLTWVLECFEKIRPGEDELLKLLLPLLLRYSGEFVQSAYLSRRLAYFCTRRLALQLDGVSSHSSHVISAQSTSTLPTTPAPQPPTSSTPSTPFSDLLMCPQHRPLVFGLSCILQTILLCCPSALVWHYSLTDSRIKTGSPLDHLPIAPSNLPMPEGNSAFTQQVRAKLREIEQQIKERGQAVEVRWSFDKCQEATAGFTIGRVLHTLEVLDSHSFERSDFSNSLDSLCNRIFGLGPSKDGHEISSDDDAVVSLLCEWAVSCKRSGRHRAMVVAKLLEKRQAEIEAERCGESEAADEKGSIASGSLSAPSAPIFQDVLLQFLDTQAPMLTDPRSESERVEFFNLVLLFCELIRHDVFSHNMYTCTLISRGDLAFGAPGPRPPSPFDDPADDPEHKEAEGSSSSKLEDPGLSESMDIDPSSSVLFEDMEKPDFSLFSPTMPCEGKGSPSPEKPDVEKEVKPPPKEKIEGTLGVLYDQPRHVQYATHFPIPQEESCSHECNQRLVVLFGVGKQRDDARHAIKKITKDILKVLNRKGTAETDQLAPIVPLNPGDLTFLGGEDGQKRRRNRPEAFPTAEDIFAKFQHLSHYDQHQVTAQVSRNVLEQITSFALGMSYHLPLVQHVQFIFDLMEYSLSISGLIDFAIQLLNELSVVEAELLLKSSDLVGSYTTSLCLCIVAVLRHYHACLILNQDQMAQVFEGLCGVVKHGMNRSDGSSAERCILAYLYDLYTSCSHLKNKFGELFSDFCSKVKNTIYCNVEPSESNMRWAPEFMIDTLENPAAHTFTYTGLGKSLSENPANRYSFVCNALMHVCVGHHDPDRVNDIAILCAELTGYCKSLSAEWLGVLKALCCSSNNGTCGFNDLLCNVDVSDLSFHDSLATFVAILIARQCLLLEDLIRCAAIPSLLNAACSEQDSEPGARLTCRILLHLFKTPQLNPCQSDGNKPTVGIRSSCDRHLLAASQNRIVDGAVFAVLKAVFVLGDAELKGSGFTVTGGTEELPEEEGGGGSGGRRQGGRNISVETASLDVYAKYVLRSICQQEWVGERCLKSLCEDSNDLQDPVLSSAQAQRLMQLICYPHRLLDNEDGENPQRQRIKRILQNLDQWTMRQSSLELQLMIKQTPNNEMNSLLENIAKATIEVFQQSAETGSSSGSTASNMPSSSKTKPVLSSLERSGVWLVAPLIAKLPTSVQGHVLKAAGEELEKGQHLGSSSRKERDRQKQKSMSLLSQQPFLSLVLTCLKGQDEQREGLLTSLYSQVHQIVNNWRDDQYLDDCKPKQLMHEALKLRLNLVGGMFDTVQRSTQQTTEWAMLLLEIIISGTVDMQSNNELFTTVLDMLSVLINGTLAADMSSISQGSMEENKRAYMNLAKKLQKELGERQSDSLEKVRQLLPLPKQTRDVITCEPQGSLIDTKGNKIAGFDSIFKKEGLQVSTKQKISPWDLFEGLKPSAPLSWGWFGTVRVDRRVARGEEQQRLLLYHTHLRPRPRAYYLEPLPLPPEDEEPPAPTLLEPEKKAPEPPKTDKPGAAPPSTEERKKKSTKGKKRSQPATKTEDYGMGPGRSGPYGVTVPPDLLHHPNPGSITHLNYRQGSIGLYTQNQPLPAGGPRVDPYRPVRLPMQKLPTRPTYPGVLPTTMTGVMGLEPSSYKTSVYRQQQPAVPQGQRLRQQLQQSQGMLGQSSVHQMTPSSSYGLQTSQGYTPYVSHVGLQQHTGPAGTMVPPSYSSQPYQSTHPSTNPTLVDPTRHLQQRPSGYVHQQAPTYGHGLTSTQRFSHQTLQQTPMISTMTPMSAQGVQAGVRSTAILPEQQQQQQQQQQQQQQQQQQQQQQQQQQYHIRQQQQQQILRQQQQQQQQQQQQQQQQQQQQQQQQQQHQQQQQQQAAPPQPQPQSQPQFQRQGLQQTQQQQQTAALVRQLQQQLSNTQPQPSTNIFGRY

[8] = target: T6, HeLa cell extract proteins (Homo sapiens, UniProt P04075); assay type: binding
T6 construct: endogenous in cells; host or cells: HeLa cell extract
T6 sequence (P04075 1-364): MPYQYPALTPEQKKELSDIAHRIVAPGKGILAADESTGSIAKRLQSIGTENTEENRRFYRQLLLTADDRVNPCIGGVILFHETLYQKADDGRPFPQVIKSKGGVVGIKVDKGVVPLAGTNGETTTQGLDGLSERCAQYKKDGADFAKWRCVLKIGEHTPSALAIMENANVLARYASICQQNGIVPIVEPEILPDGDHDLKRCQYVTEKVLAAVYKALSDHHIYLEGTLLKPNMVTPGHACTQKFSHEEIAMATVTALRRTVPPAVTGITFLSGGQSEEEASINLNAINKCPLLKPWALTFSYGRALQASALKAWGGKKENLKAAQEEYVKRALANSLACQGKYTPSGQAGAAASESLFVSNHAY

[9] = target: T7, HeLa cell extract proteins (Homo sapiens, UniProt P06753); assay type: binding
T7 construct: endogenous in cells; host or cells: HeLa cell extract
T7 sequence (P06753 whole entry): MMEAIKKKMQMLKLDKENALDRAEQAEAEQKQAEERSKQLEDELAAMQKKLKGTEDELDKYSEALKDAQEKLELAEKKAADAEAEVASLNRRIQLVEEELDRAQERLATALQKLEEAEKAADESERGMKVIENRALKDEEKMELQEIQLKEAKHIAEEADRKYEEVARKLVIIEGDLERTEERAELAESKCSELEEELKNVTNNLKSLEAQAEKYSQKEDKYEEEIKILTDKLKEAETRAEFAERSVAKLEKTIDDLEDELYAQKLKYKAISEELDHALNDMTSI

[10] = target: DIHYDROFOLATE REDUCTASE-T[…] (TB427.07.5480) (Trypanosoma brucei brucei, UniProt Q27783); assay: Multitargeted bead mixture competition; assay type: binding; conditions: for fold change vs vehicle control: vehicle control = 1
[11] = tested on: methylthioadenosine phosphorylase (LmjF.05.0830); assay: Multitargeted bead mixture competition; assay type: binding, Leishmania; conditions: for fold change vs vehicle control: protein LMJF.05.0830 METHYLTHIOADENOSINE PHOSPHORYLASE, PUTATIVE
[12] = target: PTERIDINE REDUCTASE (TB927.8.2210) (Trypanosoma brucei brucei, UniProt O76290); assay: Multitargeted bead mixture competition; assay type: binding, T. brucei; conditions: for competition for PTR1 (Figure 6): bead mixture, compound 100 μM; for fold change - vehicle control / fold change vs vehicle control: protein PTERIDINE REDUCTASE (CZT00009056.1); for fold change vs vehicle control: vehicle control = 1
[13] = HeLa, protein ALDOA (45 KDA PROTEIN.)
[14] = protein TB427.07.5480 DIH[…]-T[…]
[15] = bead mixture, Leishmania lysates
[16] = HeLa, protein DIABLO (DIABLO HOMOLOG, MIT[…])

Nc1nc2cccc(-c3ccccc3)c2n1Cc1ccc(Cl)c(Cl)c1 [compound 3]
percentage of competition from bead binding ([1]; multitargeted bead mixture, free ligand 100 μM, T. brucei lysate, TB427TMP.18.0017 CHOLINE KINASE): -1% | fold change - vehicle control [1]: 1 | fold changes relative to vehicle control (TS; captured protein TYMS, HeLa): 0.99 | fold change - vehicle control [2]: 0.67 | fold change [3]: 1.05 | fold changes relative to vehicle control [4]: 0.91 fold | fold changes relative to vehicle control ([5]; HeLa, protein ACP1): 0.71 | fold changes relative to vehicle control ([6]; captured protein DIABLO, HeLa): 1.01 | fold changes relative to vehicle control ([7]; captured protein MED12, HeLa): 1.14 | fold changes relative to vehicle control [8, 13]: 0.85 fold | fold changes relative to vehicle control ([9]; protein TPM3, HeLa): 0.87 | percentage of competition from bead binding ([10]; multitargeted bead mixture, free ligand 100 μM, T. brucei lysate, TB427.07.5480 DHFR-TS): -11% | fold change - vehicle control [10, 14]: 0.98 | fold change vs vehicle control [11]: 0.94 | competition for PTR1 (Figure 6) ([12]; T. brucei lysate): competed for PTR1 | percentage of competition from bead binding ([12]; multitargeted bead mixture, free ligand 100 μM, T. brucei lysate, TB927.8.2210 PTERIDINE REDUCTASE): 89% | fold change - vehicle control [12]: 0.15

Nc1nc2[nH]cc(CCc3ccc(C(=O)N[C@@H](CCC(=O)O)C(=O)O)cc3)c2c(=O)[nH]1 [PTX, pemetrexed]
fold change vs vehicle control [1]: 0.98 | fold changes relative to vehicle control (TS): 0.34 | inhibition, TS (TS): > 56% | binding to variant surface glycoprotein 221 (VSM2.TRYBB) ([2]; bead mixture, T. brucei lysates): bound specifically | fold change [2]: 0.39 | association with glutamate 5′-kinase (LmjF.26.2710) [3, 15]: strongly associated | fold change vs vehicle control [3]: 0.14 | fold changes relative to vehicle control [4]: 1.05 | fold changes relative to vehicle control [5]: 0.84 | fold changes relative to vehicle control [6]: 1.01 | fold changes relative to vehicle control [7]: 1 | fold changes relative to vehicle control [8]: 1.21 | fold changes relative to vehicle control [9]: 0.89 | fold change vs vehicle control ([10]; protein TB427.07.5480 DIHYDROFOLATE REDUCTASE-T[…]): 1.19 | fold change vs vehicle control [11]: 0.91 | competition for PTR1 (Figure 6) ([12]; T. brucei lysate): competed for PTR1 | fold change vs vehicle control [12]: 0.16

Nc1nc2c(c(=O)[nH]1)N(C=O)C(CNc1ccc(C(=O)N[C@@H](CCC(=O)O)C(=O)O)cc1)CN2 (some centres unmarked) [LEU, leucovorin]
fold change vs vehicle control [1]: 0.95 | inhibition, TS (TS; bead mixture, HeLa cell extract): > 56% | fold changes relative to vehicle control (TS; protein TYMS, HeLa): 0.44 | fold change [2]: 3.08 | fold change vs vehicle control [3]: 1.15 | fold changes relative to vehicle control ([4]; HeLa, captured protein EIF5): 0.98 | fold changes relative to vehicle control ([5]; protein ACP1, HeLa): 0.72 | fold changes relative to vehicle control [6, 16]: 1.06 | fold changes relative to vehicle control ([7]; HeLa, protein MED12): 1.14 | fold changes relative to vehicle control ([8]; protein ALDOA, HeLa): 0.98 | fold changes relative to vehicle control ([9]; protein TPM3, HeLa): 0.93 | fold change vs vehicle control [10, 14]: 1.45 | fold change vs vehicle control [11]: 0.96 | fold change vs vehicle control [12]: 0.92

CCCCCCOc1cccc(Cc2cnc(N)nc2N)c1 [compound 2]
fold change - vehicle control [1]: 1.11 | fold changes relative to vehicle control (TS; captured protein TYMS, HeLa): 1.31 | fold change - vehicle control [2]: 1.6 | fold change [3]: 1.07 | fold changes relative to vehicle control ([4]; HeLa, protein EIF5 (EUKARYOTIC TRANSLATION INITIATION FACTOR 5.)): 2.16 fold | fold changes relative to vehicle control ([5]; HeLa, protein ACP1): 0.98 | fold changes relative to vehicle control ([6]; captured protein DIABLO, HeLa): 0.97 | fold changes relative to vehicle control ([7]; captured protein MED12, HeLa): 0.94 | fold changes relative to vehicle control [8, 13]: 2.49 fold | fold changes relative to vehicle control ([9]; protein TPM3, HeLa): 2.05 | fold change - vehicle control [10, 14]: 1.44 | fold change vs vehicle control [11]: 0.89 | fold change - vehicle control [12]: 0.92

NCCOCCOCC(=O)Nc1nc2ncc(CNc3ccc(C(=O)NC(CCC(=O)O)C(=O)O)cc3)nc2c(=O)[nH]1 (centres unmarked) [compound 6]
fold change vs vehicle control [1]: 1.05 | fold changes relative to vehicle control (TS; protein TYMS, HeLa): 0.55 | fold change [2]: 2.16 | fold change vs vehicle control [3]: 1.06 | fold changes relative to vehicle control ([4]; HeLa, captured protein EIF5): 1.64 | fold changes relative to vehicle control ([5]; protein ACP1, HeLa): 1.04 | fold changes relative to vehicle control ([6]; HeLa, protein DIABLO (DIABLO HOMOLOG, MITOCHONDRIAL PRECURSOR)): 0.99 | fold changes relative to vehicle control ([7]; HeLa, protein MED12): 1.21 | fold changes relative to vehicle control ([8]; protein ALDOA, HeLa): 1.34 | fold changes relative to vehicle control ([9]; protein TPM3, HeLa): 1.18 | fold change vs vehicle control [10, 14]: 1.09 | fold change vs vehicle control [11]: 0.96 | fold change vs vehicle control [12]: 0.49

CCCCCCOc1ccc(Cc2cnc(N)nc2N)cc1 [compound 1]
fold change - vehicle control [1]: 1.05 | fold changes relative to vehicle control (TS; captured protein TYMS, HeLa): 0.76 | fold change - vehicle control [2]: 1.43 | fold change [3]: 1.07 | fold changes relative to vehicle control [4]: 1.24 fold | fold changes relative to vehicle control ([5]; HeLa, protein ACP1): 0.77 | fold changes relative to vehicle control ([6]; captured protein DIABLO, HeLa): 1.09 | fold changes relative to vehicle control ([7]; captured protein MED12, HeLa): 1.01 | fold changes relative to vehicle control [8, 13]: 1.38 fold | fold changes relative to vehicle control ([9]; protein TPM3, HeLa): 1.18 | fold change - vehicle control [10, 14]: 1.45 | binding to methylthioadenosine phosphorylase (LmjF.05.0830) [11, 15]: bound | fold change vs vehicle control [11]: 0.19 | fold change - vehicle control [12]: 1

NCCCNc1ccc(C(=O)NC(CCC(=O)O)C(=O)O)cc1 (centres unmarked) [compound 7]
fold change vs vehicle control [1]: 1.16 | fold changes relative to vehicle control (TS; protein TYMS, HeLa): 1.04 | fold change [2]: 0.81 | fold change vs vehicle control [3]: 1 | fold changes relative to vehicle control ([4]; HeLa, captured protein EIF5): 0.94 | fold changes relative to vehicle control ([5]; protein ACP1, HeLa): 0.71 | fold changes relative to vehicle control [6, 16]: 1.05 | fold changes relative to vehicle control ([7]; HeLa, protein MED12): 1.21 | fold changes relative to vehicle control ([8]; protein ALDOA, HeLa): 1.02 | fold changes relative to vehicle control ([9]; protein TPM3, HeLa): 1.1 | fold change vs vehicle control [10, 14]: 0.98 | fold change vs vehicle control [11]: 1.02 | fold change vs vehicle control [12]: 1.03

Source: paper PMC6199744, “Development of Chemical Proteomics for the Folateome and Analysis of the Kinetoplastid Folateome” (ACS Infectious Diseases, 2018)
